Measurements reported in ChEMBL document CHEMBL1201862, “PubChem BioAssay data set” (2004).
The source made the active and inactive calls.

What was measured:
[1] = inhibitors of clade B AD8 Env fusion, dose response, cell-based, cherry-pick (AID 652062); format: functional;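 also: luciferase signal from cell-cell fusion driven by HIV-1 clade B AD8 Env; potency is for inhibitors of fusion seen as a drop in luminescence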
[2] = cells; format: functional, cell-based
[3] = cells; format: functional, cell-based; remark: listed apart in the source
[4] = tested on: INS1; experiment: beta cell apoptosis inhibitors, cytokine rescue, dose response, luminescence, retest (AID 449756); format: functional, cell-based; settings: Rattus norvegicus;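 also: cell death triggered by IL-1 beta plus TNF-alpha plus IFN-gamma mixture; protective hits raise ATP signal compared with cytokine alone wells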
[5] = CEM21 lymphoblast cell cytotoxicity, dose response, cytotoxicity control for viral fusion inhibitor project, CellTiter-Glo luminescence, cherry-picked (AID 652042); format: functional, cell-based;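 also: potency for signal decrease meaning cytotoxicity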
[6] = biological target: T1, Mannose-6-phosphate isomerase (Homo sapiens, UniProt P34949); experiment: human PMI inhibitors, high substrate, primary screen, biochemical, fluorescence intensity, high mannose 6-phosphate (AID 1220)
T1 sequence (P34949 whole entry): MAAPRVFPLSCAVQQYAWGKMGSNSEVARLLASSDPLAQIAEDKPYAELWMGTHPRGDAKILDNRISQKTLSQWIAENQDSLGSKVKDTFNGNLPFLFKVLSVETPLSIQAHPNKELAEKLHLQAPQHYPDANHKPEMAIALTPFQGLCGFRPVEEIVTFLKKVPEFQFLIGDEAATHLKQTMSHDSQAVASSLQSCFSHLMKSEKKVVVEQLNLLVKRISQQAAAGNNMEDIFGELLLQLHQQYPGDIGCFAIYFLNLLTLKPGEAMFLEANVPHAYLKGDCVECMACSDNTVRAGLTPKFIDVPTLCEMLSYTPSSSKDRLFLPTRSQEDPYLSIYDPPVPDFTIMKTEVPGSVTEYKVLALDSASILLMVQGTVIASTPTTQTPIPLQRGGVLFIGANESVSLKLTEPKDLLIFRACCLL

[7] = growth suppression of beta-catenin-knockout colon cells, dose response, cell-based, HCT116, human colon tumor (AID 1045); format: functional;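 also: HCT116 colon tumor cells with beta catenin knocked out; cells exposed to compound for 60 hours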
[8] = growth suppression of PTEN-null colon cells, dose response, cell-based, HCT116 PTEN knockout (AID 1047); format: functional;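 also: HCT116 colon tumor cells with PTEN knocked out; cells exposed to compound for 60 hours before readout; potency for loss of cell viability measured by luminescence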
[9] = biological target: Nonstructural protein 1 (Influenza A virus, UniProt Q194T2); format: functional, Influenza A virus (A/California/07/2009(H1N1))
Sequence of Nonstructural protein 1 (Q194T2 whole entry): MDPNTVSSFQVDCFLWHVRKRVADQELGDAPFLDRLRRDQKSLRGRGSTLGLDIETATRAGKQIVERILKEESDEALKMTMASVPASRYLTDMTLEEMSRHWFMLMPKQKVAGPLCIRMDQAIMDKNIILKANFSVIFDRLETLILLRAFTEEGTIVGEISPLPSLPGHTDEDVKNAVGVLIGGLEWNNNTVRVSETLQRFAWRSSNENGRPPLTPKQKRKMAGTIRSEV

[10] = tested on: Danio rerio; experiment: In Vivo Angiogenesis Dose-Response Confirmation. [Related pubchem assays: 732 (Assay preceding this confirmatory assay.)]; format: functional, organism-based
[11] = biological target: T2, High affinity choline transporter 1 (Homo sapiens, UniProt Q9GZV3); experiment: CHT inhibitors, dose response, cell-based, 5-point CRC, membrane potential dye (AID 504840); format: functional
T2 sequence (Q9GZV3 whole entry): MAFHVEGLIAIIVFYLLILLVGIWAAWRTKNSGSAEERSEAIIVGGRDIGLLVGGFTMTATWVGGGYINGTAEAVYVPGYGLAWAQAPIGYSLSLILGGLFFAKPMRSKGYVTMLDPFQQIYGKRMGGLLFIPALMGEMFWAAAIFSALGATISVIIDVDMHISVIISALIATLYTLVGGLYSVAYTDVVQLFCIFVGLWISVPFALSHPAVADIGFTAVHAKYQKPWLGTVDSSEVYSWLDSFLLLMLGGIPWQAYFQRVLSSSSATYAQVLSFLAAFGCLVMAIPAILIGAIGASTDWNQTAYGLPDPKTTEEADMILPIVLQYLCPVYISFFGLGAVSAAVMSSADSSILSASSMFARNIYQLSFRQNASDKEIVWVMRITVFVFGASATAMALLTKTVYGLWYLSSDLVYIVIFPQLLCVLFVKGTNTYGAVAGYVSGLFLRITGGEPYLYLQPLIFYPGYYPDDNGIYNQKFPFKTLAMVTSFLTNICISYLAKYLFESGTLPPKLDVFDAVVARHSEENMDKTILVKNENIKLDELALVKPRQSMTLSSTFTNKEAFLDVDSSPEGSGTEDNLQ

[12] = biological target: Nucleotide-binding oligomerization domain-containing protein 2 (Homo sapiens, UniProt Q9HC29); experiment: NOD2 signaling inhibitors, cell-based, luminescence, uHTS, HEK293 (AID 1566); format: functional
Sequence of Nucleotide-binding oligomerization domain-containing protein 2 (Q9HC29 whole entry, the tested form may be a part): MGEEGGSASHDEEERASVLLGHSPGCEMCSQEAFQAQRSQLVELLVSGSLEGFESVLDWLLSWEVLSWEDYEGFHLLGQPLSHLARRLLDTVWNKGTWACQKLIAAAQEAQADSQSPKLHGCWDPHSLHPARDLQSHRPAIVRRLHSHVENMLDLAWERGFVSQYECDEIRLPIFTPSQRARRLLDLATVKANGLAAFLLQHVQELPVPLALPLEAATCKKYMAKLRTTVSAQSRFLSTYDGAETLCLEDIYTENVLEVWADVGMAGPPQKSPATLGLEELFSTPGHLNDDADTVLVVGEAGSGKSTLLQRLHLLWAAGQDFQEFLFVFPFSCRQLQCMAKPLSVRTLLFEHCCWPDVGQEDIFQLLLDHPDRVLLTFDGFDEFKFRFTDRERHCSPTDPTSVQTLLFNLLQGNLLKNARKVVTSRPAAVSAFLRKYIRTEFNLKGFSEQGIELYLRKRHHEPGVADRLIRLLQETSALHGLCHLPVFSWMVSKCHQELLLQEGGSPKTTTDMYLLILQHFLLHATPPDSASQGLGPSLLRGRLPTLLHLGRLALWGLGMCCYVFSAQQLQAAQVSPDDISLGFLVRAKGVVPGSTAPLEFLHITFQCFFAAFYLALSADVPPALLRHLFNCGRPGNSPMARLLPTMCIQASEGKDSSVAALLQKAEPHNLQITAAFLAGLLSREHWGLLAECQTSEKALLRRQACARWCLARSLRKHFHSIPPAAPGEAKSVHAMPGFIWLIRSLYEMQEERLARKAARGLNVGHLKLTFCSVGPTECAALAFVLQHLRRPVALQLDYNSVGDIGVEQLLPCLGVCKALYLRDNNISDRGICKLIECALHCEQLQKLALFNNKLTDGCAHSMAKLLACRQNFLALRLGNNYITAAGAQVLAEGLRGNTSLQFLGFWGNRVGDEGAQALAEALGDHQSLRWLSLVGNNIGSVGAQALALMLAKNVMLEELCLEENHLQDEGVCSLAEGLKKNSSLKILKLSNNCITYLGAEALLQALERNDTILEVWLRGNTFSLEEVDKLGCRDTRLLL

[13] = Vero cell cytotoxicity, dose response, cytotoxicity control for Vif-APOBEC3G degradation inhibitor project, Vero cells (AID 1117358); format: functional; settings: Human immunodeficiency virus 1, Vero
[14] = biological target: T3, Replicative DNA helicase DnaB (Mycobacterium tuberculosis, UniProt P9WMR3); experiment: DnaB intein splicing inhibitors, dose response, biochemical, cell-free fluorescence (AID 449749); format: functional
T3 sequence (P9WMR3 whole entry): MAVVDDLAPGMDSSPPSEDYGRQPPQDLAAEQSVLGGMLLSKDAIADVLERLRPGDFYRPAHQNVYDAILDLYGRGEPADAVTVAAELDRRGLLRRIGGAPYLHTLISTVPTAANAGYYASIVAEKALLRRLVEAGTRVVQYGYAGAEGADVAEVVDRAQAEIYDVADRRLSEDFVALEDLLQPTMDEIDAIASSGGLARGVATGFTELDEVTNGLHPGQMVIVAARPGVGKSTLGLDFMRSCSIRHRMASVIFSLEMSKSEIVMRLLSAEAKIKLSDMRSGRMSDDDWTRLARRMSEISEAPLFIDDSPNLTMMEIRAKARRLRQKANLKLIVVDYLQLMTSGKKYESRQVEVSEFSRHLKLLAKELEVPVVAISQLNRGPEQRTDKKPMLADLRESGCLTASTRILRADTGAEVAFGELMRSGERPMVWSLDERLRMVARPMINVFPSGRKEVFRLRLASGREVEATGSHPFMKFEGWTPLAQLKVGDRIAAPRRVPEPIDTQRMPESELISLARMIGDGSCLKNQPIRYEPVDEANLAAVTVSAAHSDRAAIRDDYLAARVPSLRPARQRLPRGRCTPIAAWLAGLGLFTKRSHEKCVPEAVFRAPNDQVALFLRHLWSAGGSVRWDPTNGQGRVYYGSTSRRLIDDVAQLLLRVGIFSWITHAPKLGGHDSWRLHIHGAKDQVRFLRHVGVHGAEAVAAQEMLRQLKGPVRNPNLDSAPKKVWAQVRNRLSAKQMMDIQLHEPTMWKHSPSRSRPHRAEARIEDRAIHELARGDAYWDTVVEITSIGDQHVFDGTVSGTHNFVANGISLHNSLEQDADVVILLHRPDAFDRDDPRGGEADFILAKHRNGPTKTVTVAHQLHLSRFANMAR

[15] = tested on: HEK293; experiment: NOD1 signaling inhibitors, primary screen, cell-based, luminescence, uHTS (AID 1578); format: functional; settings: Homo sapiens
[16] = tested on: HEK293; experiment: cells; format: functional, cell-based; settings: Homo sapiens
[17] = biological target: T4, Protein RecA (Mycobacterium tuberculosis, UniProt P9WHJ3); experiment: Fluorescence Cell-Free Homogeneous Dose Retest to Identify Inhibitors of RecA-Intein Splicing Activity. [Related pubchem assays (depositor defined):AID2097, AID2223, AID489010, AID492950]; format: functional
T4 sequence (P9WHJ3 whole entry): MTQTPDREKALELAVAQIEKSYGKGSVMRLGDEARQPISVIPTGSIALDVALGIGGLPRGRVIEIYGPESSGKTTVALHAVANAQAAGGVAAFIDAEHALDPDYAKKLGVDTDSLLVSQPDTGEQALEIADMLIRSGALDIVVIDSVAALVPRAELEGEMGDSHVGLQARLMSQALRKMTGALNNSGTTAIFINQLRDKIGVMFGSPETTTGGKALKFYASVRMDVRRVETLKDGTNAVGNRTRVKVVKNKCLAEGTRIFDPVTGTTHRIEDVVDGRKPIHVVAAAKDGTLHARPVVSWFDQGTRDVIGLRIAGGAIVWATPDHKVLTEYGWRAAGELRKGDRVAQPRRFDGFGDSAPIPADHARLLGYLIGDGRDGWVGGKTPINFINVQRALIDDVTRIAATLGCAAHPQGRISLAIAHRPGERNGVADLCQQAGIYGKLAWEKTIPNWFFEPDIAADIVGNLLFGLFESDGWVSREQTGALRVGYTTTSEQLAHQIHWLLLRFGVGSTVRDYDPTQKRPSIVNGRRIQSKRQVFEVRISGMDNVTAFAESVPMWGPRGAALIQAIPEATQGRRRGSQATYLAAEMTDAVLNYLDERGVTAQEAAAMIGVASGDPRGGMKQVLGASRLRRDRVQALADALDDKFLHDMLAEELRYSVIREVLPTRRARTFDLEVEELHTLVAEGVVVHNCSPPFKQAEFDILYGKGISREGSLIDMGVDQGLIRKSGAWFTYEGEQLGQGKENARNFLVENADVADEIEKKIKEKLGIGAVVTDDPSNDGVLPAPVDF

[18] = tested on: HEK293; experiment: cells; format: functional, cell-based; settings: Homo sapiens; remark: listed apart in the source
[19] = Intein inhibitors as potential Tuberculosis drugs, a cytotoxicity screen. [Related pubchem assays (depositor defined):AID2221, AID2223, AID434968, AID435010, AID449749, AID449750, AID489010]; format: functional
[20] = tested on: HEK293; experiment: cells; format: functional, cell-based; settings: Homo sapiens; remark: listed apart in the source
[21] = tested on: HEK293; experiment: NOD2 signaling inhibitors in MDP-stimulated cells, cell-based, uHTS, luminescence (AID 2001); format: functional; settings: Homo sapiens
[22] = biological target: T5, Dual specificity protein phosphatase 6 (Rattus norvegicus, UniProt Q64346); experiment: MKP-3 phosphatase inhibitors, primary screen, biochemical, rat enzyme, in vitro (AID 425)
T5 sequence (Q64346 whole entry): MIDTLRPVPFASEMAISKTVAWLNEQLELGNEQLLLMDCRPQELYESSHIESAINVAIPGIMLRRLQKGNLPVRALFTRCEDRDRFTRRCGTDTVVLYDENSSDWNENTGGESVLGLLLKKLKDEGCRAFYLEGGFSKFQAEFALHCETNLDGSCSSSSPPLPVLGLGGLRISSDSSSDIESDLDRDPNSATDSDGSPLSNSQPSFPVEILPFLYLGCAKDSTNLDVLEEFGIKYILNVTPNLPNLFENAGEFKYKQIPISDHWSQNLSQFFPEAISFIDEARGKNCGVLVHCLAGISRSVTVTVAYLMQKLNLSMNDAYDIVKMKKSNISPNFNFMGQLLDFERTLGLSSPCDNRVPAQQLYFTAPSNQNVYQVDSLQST

[23] = biological target: T6, Bcl-2-related protein A1 (Mus musculus, UniProt Q07440); experiment: Bfl-1 inhibitors blocking BH3 peptide binding, confirmation, biochemical, TR-FRET, mouse Bfl-1 (AID 621);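 also: TR-FRET binding of GST-Bfl-1 to FITC-labelled Bid peptide via terbium antibody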
T6 sequence (Q07440 whole entry): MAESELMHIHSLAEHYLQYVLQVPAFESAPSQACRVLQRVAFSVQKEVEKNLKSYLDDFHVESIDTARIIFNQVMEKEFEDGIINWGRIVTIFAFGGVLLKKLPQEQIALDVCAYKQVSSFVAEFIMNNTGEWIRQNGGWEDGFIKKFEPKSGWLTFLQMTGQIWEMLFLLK

[24] = biological target: T6, Bcl-2-related protein A1; experiment: Bfl-1 inhibitors, primary screen, biochemical, fluorescence polarization, FITC-Bid, mouse (AID 432)
[25] = biological target: Solute carrier family 12 member 2/member 5 (Homo sapiens, UniProt P55011+Q9H2X9); experiment: KCC2 and NKCC1 inhibition by rubidium flux, cell-based, NKCC1 counter-screen (AID 1734); format: functional, HEK293
[26] = biological target: T7, Low molecular weight phosphotyrosine protein phosphatase (Homo sapiens, UniProt P24666); experiment: LMPTP phosphatase inhibitors, colorimetric pNPP readout, dose response, orthogonal assay, biochemical, absorbance, pNPP substrate, LMPTP-A isoform, set 2 (AID 743308); format: functional
T7 sequence (P24666 whole entry): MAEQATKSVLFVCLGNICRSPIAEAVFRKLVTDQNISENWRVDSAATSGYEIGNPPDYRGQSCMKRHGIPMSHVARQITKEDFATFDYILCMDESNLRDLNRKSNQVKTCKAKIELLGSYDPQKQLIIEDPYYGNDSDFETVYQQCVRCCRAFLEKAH

[27] = biological target: T7, Low molecular weight phosphotyrosine protein phosphatase; experiment: LMPTP phosphatase inhibitors, dose response, biochemical, OMFP substrate, fluorescence intensity, set 2 (AID 743307); format: functional
[28] = biological target: NADPH oxidase 1 (Homo sapiens, UniProt Q9Y5S8); experiment: Late-stage luminescence-based cell-based dose response assay to identify inhibitors of NADPH oxidase 1 (NOX1): Synthesized analogs 2.; format: functional
Sequence of NADPH oxidase 1 (Q9Y5S8 whole entry): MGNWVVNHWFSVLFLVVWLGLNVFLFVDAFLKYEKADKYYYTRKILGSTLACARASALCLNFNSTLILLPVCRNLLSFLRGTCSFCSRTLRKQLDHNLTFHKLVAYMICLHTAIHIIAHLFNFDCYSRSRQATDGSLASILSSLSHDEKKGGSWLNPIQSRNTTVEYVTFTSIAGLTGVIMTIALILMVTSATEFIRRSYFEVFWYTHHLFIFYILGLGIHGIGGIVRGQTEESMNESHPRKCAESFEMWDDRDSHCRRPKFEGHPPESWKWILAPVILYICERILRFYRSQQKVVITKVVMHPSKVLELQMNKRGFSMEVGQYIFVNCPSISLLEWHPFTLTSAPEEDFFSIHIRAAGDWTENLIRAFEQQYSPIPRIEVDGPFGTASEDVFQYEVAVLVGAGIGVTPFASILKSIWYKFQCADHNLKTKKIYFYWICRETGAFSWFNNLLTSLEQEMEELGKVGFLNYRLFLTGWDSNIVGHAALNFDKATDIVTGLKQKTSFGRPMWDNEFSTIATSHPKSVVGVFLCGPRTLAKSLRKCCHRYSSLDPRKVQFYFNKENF

COc1ccccc1N1CCN(Cc2ccc(O)c3ncccc23)CC1
AC50 [1]: 29.6 µM (active) | EC50 [2]: 12.1 µM (active) | EC50 [3]: > 350 µM (not active) | AC50 [4]: 2.27 µM (active) | AC50 [5]: 3.39 µM (active) | IC50 [6]: 19.2 µM (active) | EC50 [7]: 1.95 µM (active) | EC50 [8]: 2.25 µM (active) | IC50 [9]: 5.46 µM (active)

C[N+](C)(C)CCOC(=O)CBr [E1001]
IC50 [10]: 31.6 µM (not active) | IC50 [11]: 14.1 µM (active)

CN(C1=C(NC(=O)c2ccc(Cl)cc2)C(=O)c2ccccc2C1=O)c1ccccc1
EC50 [12]: 11.4 µM (active) | AC50 [4]: 3.01 µM (active) | CC50 [13]: > 40 µM (active) | AC50 [14]: 3.94 µM (active) | EC50 [7]: 8.39 µM (active) | EC50 [8]: 7.51 µM (active) | EC50 [15]: > 20 µM (inactive) | IC50 [16]: > 20 µM (inactive) | EC50 [17]: 1.66 µM (active) | IC50 [18]: 5.15 µM (active) | CC50 [19]: 20.1 µM (active) | IC50 [20]: 9.67 µM (active) | IC50 [9]: 7.27 µM (active) | IC50 [21]: 8.31 µM (active)

N#Cc1c(N)sc(=S)c2c1CCN(Cc1ccccc1)C2
IC50 [22]: 10.8 µM (active) | IC50 [23]: > 100 µM (not active) | IC50 [24]: > 100 µM (not active)

O=S(=O)(NCc1ccccc1)c1ccc(Cl)c(S(=O)(=O)NCc2ccccc2)c1
IC50 [25]: 9.1 µM (active)

CC1CCN(c2nc(-c3ccccc3)nc3ccccc23)CC1
IC50 [26]: > 80 µM (inactive) | IC50 [27]: > 80 µM (inactive)

O=C(Nc1c(F)cccc1F)N1c2ccccc2Sc2ccccc21
IC50 [28]: 0.636 µM (active)
